Values belong to the molecule of their own block, whether it stands above or below them.
Key:
[1] = biological target: T1, GST-RORγ (Homo sapiens, UniProt P51449); experiment: RORγ scintillation proximity (SPA) radioligand binding assay, displacement of [3H]-T0901317; settings: read-out: RORγ SPA % bound = % radiolabel bound; for remaining activity at 10 µM: 10 μM compound; for remaining activity at 1 µM: 1 μM compound (Table 2D)
T1 construct: 1 μg of GST-RORγ-LBD, 5 nM of [3H]T1317 as radioligand
T1 sequence (P51449 269-508 limits assumed): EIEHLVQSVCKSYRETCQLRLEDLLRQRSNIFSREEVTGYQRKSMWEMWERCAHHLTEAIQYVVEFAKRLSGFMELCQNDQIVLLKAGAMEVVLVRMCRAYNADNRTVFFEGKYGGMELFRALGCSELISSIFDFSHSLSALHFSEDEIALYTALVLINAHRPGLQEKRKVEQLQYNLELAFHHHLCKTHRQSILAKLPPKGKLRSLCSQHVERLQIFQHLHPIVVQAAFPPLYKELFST

[2] = biological target: T2, RORγ (Homo sapiens, UniProt P51449); experiment: Gal4-RORγ LBD / UAS luciferase cotransfection assay; format: cell-based; settings: 10 μM
T2 construct: expressed in transfected cells; host or cells: HEK293T
T2 sequence (P51449 269-508 limits assumed): T1 sequence (P51449 269-508 limits assumed)

[3] = system: VP16; experiment: Gal4 DBD-VP16 / UAS luciferase control assay; format: cell-based; settings: 10 μM

remaining activity at 10 µM [1]: 80%
Compound: OC(c1ccc(-c2ccc(CN3CCN(Cc4ccncc4)CC3)cc2)cc1F)(C(F)(F)F)C(F)(F)F [Compound 105, 1,1,1,3,3,3-Hexafluoro-2-(3-fluoro-4′-((4-(pyridin-4-ylmethyl)piperazin-1-yl)methyl)-[1,1′-biphenyl]-4-yl)propan-2-ol]

remaining activity at 10 µM [1]: 40%
Compound: COc1cc(-c2ccc(CN3CCN(Cc4ccncc4)CC3)cc2)ccc1C(O)(C(F)(F)F)C(F)(F)F [Compound 106, 1,1,1,3,3,3-Hexafluoro-2-(3-methoxy-4′-((4-(pyridin-4-ylmethyl)piperazin-1-yl)methyl)-[1,1′-biphenyl]-4-yl)propan-2-ol]

remaining activity at 10 µM [1]: 100%
Compound: Cc1cc(-c2ccc(CN3CCN(Cc4ccncc4)CC3)cc2)ccc1C(O)(C(F)(F)F)C(F)(F)F [Compound 107, 1,1,1,3,3,3-Hexafluoro-2-(3-methyl-4′-((4-(pyridin-4-ylmethyl)piperazin-1-yl)methyl)-[1,1′-biphenyl]-4-yl)propan-2-ol]

remaining activity at 10 µM [1]: 48%
Compound: OC(c1ccc(-c2ccc(CN3CCN(Cc4c[nH]cn4)CC3)cc2)cc1)(C(F)(F)F)C(F)(F)F [Compound 112, 2-(4′-((4-((1H-Imidazol-5-yl)methyl)piperazin-1-yl)methyl)-[1,1′-biphenyl]-4-yl)-1,1,1,3,3,3-hexafluoropropan-2-ol]

remaining activity at 10 µM [1]: 20%
Compound: CC1CN(Cc2ccc(-c3ccc(C(O)(C(F)(F)F)C(F)(F)F)cc3)cc2)CCN1Cc1ccncc1 (centres unmarked) [Compound 117]

remaining activity at 10 µM [1]: 20%
Compound: CC1CN(Cc2ccncc2)CCN1Cc1ccc(-c2ccc(C(O)(C(F)(F)F)C(F)(F)F)cc2)cc1 (centres unmarked) [Compound 118]

remaining activity at 10 µM [1]: 15%
Compound: O=C1CN(Cc2ccc(-c3ccc(C(O)(C(F)(F)F)C(F)(F)F)cc3)cc2)CCN1Cc1ccncc1 [Compound 119]

remaining activity at 10 µM [1]: 15%
Compound: O=C1CN(Cc2ccncc2)CCN1Cc1ccc(-c2ccc(C(O)(C(F)(F)F)C(F)(F)F)cc2)cc1 [Compound 120]

remaining activity at 1 µM [1]: 76%
Compound: O=C(Nc1ccc(-c2ccc(C(O)(C(F)(F)F)C(F)(F)F)cc2)cc1)N1CCN(Cc2ccncc2)CC1 [Compound 136, N-(4′-(1,1,1,3,3,3-hexafluoro-2-hydroxypropan-2-yl)-[1,1′-biphenyl]-4-yl)-4-(pyridin-4-ylmethyl)piperazine-1-carboxamide]

Compound: O=C(Cc1ccc(-c2ccc(C(O)(C(F)(F)F)C(F)(F)F)cc2)cc1)N1CCN(Cc2ccncc2)CC1 [Compound 137, 2-(4′-(1,1,1,3,3,3-hexafluoro-2-hydroxypropan-2-yl)-[1,1′-biphenyl]-4-yl)-1-(4-(pyridin-4-ylmethyl)piperazin-1-yl)ethanone]
remaining activity at 1 µM [1]: 81%

remaining activity at 1 µM [1]: 68%
Compound: O=S(=O)(c1ccc(-c2ccc(C(O)(C(F)(F)F)C(F)(F)F)cc2)cc1)N1CCN(Cc2ccncc2)CC1 [Compound 138, 1,1,1,3,3,3-hexafluoro-2-(4′-((4-(pyridin-4-ylmethyl)piperazin-1-yl)sulfonyl)-[1,1′-biphenyl]-4-yl)propan-2-ol]

remaining activity at 1 µM [1]: 59%
Compound: OC(c1ccc(-c2ccc3c(c2)CCC3N2CCN(Cc3ccncc3)CC2)cc1)(C(F)(F)F)C(F)(F)F (centres unmarked) [Compound 139, 1,1,1,3,3,3-hexafluoro-2-(4-(1-(4-(pyridin-4-ylmethyl)piperazin-1-yl)-2,3-dihydro-H I-inden-5-yl)phenyl)propan-2-ol]

remaining activity at 1 µM [1]: 74%
Compound: CC(c1ccc(-c2ccc(C(O)(C(F)(F)F)C(F)(F)F)cc2)cc1)N1CCN(Cc2ccncc2)CC1 (centres unmarked) [Compound 140, 1,1,1,3,3,3-hexafluoro-2-(4′-(1-(4-(pyridin-4-ylmethyl)piperazin-1-yl)ethyl)-[1,1′-biphenyl]-4-yl)propan-2-ol]

remaining activity at 1 µM [1]: 74%
Compound: CCC(c1ccc(-c2ccc(C(O)(C(F)(F)F)C(F)(F)F)cc2)cc1)N1CCN(Cc2ccncc2)CC1 (centres unmarked) [Example 141, 1,1,1,3,3,3-hexafluoro-2-(4′-(1-(4-(pyridin-4-ylmethyl)piperazin-1-yl)propyl)-[1,1′-biphenyl]-4-yl)propan-2-ol]

remaining activity at 1 µM [1]: 73%
Compound: CCCCC(c1ccc(-c2ccc(C(O)(C(F)(F)F)C(F)(F)F)cc2)cc1)N1CCN(Cc2ccncc2)CC1 (centres unmarked) [Example 142, 1,1,1,3,3,3-hexafluoro-2-(4′-(1-(4-(pyridin-4-ylmethyl)piperazin-1-yl)pentyl)-[1,1′-biphenyl]-4-yl)propan-2-ol]

remaining activity at 1 µM [1]: 74%
Compound: CC(Cc1ccc(-c2ccc(C(O)(C(F)(F)F)C(F)(F)F)cc2)cc1)N1CCN(Cc2ccncc2)CC1 (centres unmarked) [Example 143, 1,1,1,3,3,3-hexafluoro-2-(4′-(2-(4-(pyridin-4-ylmethyl)piperazin-1-yl)propyl)-[1,1′-biphenyl]-4-yl)propan-2-ol]

remaining activity at 1 µM [1]: 61%
Compound: OC(c1ccc(-c2ccc(CCN3CCN(Cc4ccncc4)CC3)cc2)cc1)(C(F)(F)F)C(F)(F)F [Example 144, 1,1,1,3,3,3-hexafluoro-2-(4′-(2-(4-(pyridin-4-ylmethyl)piperazin-1-yl)ethyl)-[1,1′-biphenyl]-4-yl)propan-2-ol]

Compound: O=S(=O)(c1cccs1)N1CCN(Cc2ccc(-c3ccc(C(O)(C(F)(F)F)C(F)(F)F)cc3)cc2)CC1 [Example 145, 1,1,1,3,3,3-Hexafluoro-2-(4′-((4-(thiophen-2-ylsulfonyl)piperazin-1-yl)methyl)-[1,1′-biphenyl]-4-yl)propan-2-ol]
RORγ repression, fold change over DMSO [2]: 3.0 fold change over DMSO
VP16 repression, fold change over DMSO [3]: 3.0 fold change over DMSO

Compound: O=S(=O)(c1ccc(C(F)(F)F)cc1)N1CCN(Cc2ccc(-c3ccc(C(O)(C(F)(F)F)C(F)(F)F)cc3)cc2)CC1 [Example 146, 1,1,1,3,3,3-Hexafluoro-2-(4′-((4-((4-(trifluoromethyl)phenyl)sulfonyl)piperazin-1-yl)methyl)-[1,1′-biphenyl]-4-yl)propan-2-ol]
RORγ repression, fold change over DMSO [2]: 0.9 fold change over DMSO
VP16 repression, fold change over DMSO [3]: 0.7 fold change over DMSO

Compound: O=S(=O)(c1ccc(CBr)cc1)N1CCN(Cc2ccc(-c3ccc(C(O)(C(F)(F)F)C(F)(F)F)cc3)cc2)CC1 [Example 147, 2-(4′-((4-((4-(Bromomethyl)phenyl)sulfonyl)piperazin-1-yl)methyl)-[1,1′-biphenyl]-4-yl)-1,1,1,3,3,3-hexafluoropropan-2-ol]
RORγ repression, fold change over DMSO [2]: 0.5 fold change over DMSO
VP16 repression, fold change over DMSO [3]: 0.5 fold change over DMSO

Compound: Cc1ccc([N+](=O)[O-])cc1S(=O)(=O)N1CCN(Cc2ccc(-c3ccc(C(O)(C(F)(F)F)C(F)(F)F)cc3)cc2)CC1 [Example 148, 1,1,1,3,33-Hexafluoro-2-(4′-((4-((2-methyl-5-nitrophenyl)sulfonyl)piperazin-1-yl)methyl)-[1,1′-biphenyl]-4-yl)propan-2-ol]
RORγ repression, fold change over DMSO [2]: 0.4 fold change over DMSO
VP16 repression, fold change over DMSO [3]: 1.0 fold change over DMSO

Compound: O=[N+]([O-])c1ccc(S(=O)(=O)N2CCN(Cc3ccc(-c4ccc(C(O)(C(F)(F)F)C(F)(F)F)cc4)cc3)CC2)cc1 [Example 149, 1,1,1,3,3,3-Hexafluoro-2-(4′-((4-((4-nitrophenyl)sulfonyl)piperazin-1-yl)methyl)-[1,1′-biphenyl]-4-yl)propan-2-ol]
RORγ repression, fold change over DMSO [2]: 0.5 fold change over DMSO
VP16 repression, fold change over DMSO [3]: 0.7 fold change over DMSO

Compound: O=C(OCc1ccccc1)N1CCN(Cc2ccc(-c3ccc(C(O)(C(F)(F)F)C(F)(F)F)cc3)cc2)CC1 [Example 150, Benzyl 4-((4′-(1,1,1,3,3,3-hexafluoro-2-hydroxypropan-2-yl)-[1,1′-biphenyl]-4-yl)methyl)piperazine-1-carboxylate]
RORγ repression, fold change over DMSO [2]: 0.5 fold change over DMSO
VP16 repression, fold change over DMSO [3]: 0.9 fold change over DMSO

Compound: O=C(Oc1ccc([N+](=O)[O-])cc1)N1CCN(Cc2ccc(-c3ccc(C(O)(C(F)(F)F)C(F)(F)F)cc3)cc2)CC1 [Example 151, 4-Nitrophenyl 4-((4′-(1,1,1,3,3,3-hexafluoro-2-hydroxypropan-2-yl)-[1,1′-biphenyl]-4-yl)methyl)piperazine-1-carboxylate]
RORγ repression, fold change over DMSO [2]: 0.6 fold change over DMSO
VP16 repression, fold change over DMSO [3]: 0.6 fold change over DMSO

remaining activity at 1 µM [1]: 90%
Compound: OC(c1ccc(-c2ccc(CN3CCN(Cc4ccc5cc[nH]c5c4)CC3)cc2)cc1)(C(F)(F)F)C(F)(F)F [Example 154, 2-(4′-((4-((1H-indol-6-yl)methyl)piperazin-1-yl)methyl)-[1,1′-biphenyl]-4-yl)-1,1,1,3,3,3-hexafluoropropan-2-ol]

remaining activity at 1 µM [1]: 100%
Compound: OC(c1ccc(-c2ccc(CN3CCN(Cc4ccc5nc[nH]c5c4)CC3)cc2)cc1)(C(F)(F)F)C(F)(F)F [Example 155, 2-(4′-((4-((1H-benzo[d]imidazol-6-yl)methyl)piperazin-1-yl)methyl)-[1,1′-biphenyl]-4-yl)-1,1,1,3,3,3-hexafluoropropan-2-ol]

remaining activity at 1 µM [1]: 75%
Compound: CC(C)Oc1cc(C(O)(C(F)(F)F)C(F)(F)F)ccc1-c1ccc(CN2CCN(Cc3ccncc3)CC2)cc1 [Example 156, 1,1,1,3,3,3-hexafluoro-2-(2-isopropoxy-4′-((4-(pyridin-4-ylmethyl)piperazin-1-yl)methyl)-[1,1′-biphenyl]-4-yl)propan-2-ol]

remaining activity at 1 µM [1]: 20%
Compound: CC(C)CCN1CCN(Cc2ccc(-c3ccc(C(O)(C(F)(F)F)C(F)(F)F)cc3)cc2)CC1 [Example 157, 1,1,1,3,3,3-hexafluoro-2-(4′-((4-isopentylpiperazin-1-yl)methyl)-[1,1′-biphenyl]-4-yl)propan-2-ol]
